Consider two substances from article PMC6413231, “o-Vanillin Derived Schiff Bases and Their Organotin(IV) Compounds: Synthesis, Structural Characterisation, In-Silico Studies and Cytotoxicity” (International Journal of Molecular Sciences, 2019).

Experiment [1] deals with RT-112 cells. Kind of experiment: Intracellular ROS measurement (DCFH-DA). It counts as cell-based, human. The settings on record: 24 h, DMSO as control. An excerpt: Two compounds with the most promising bioactivity, Ph2Sn(S2MoVa) and Ph2Sn(S4MoVa), were selected for further cell apoptosis studies, in order to evaluate the primary damage to biological macromolecules through redox reactions, particularly via formation of ROS [68]. ROS are highly reactive molecules/radicals (O2, O2^•, H2O2, HO^•) that are continuously generated during aerobic metabolism, but when in excessive amounts, can lead to protein and DNA oxidation, protein cross-linking and cell death. Estimation of the levels of ROS in cell culture is an important step towards better understanding the mechanisms that lead to cell death or disease processes. […] ROS production was measured using the ROS-detecting fluorescent dye DCFH-DA and DMSO was used as a control. Both compounds were able to induce ROS production in RT-112 cell lines after 24 h.
Intracellular ROS measurements were used to assess antioxidant or ROS activity. Measurements were performed using a fluorescence plate reader following to the procedure outlines in the ROS detection kit (OxiSelect™). […] The cells were then read on a standard Infinite M200 fluorescence microplate reader (Tecan, Männedorf, Switzerland). The ROS or antioxidant content in unknown samples was determined by comparison with the predetermined DCF standard curve.

In experiment [2] the test system is Du145 (prostate) cancer cells. Kind of experiment: MTT growth inhibition assay, Du145. It counts as cell-based. Conditions: 72 h, ± standard error, read-out: Growth Inhibition Concentration, GI50. How it is done: (§1) The Schiff bases and their organotin(IV) compounds were screened for in vitro cytotoxicity against a panel of 12 cancer cell lines: EJ-28 (muscle invasive bladder), RT-112 (minimum-invasive bladder), HT29 (colon), U87 and SJ-G2 (glioblastoma), MCF-7 (breast), A2780 (ovarian), H460 (lung), A431 (skin), DU145 (prostate), BE2-C (neuroblastoma), MIA (pancreatic) and one normal breast cell line (MCF-10A) using the MTT metabolic assay (Figure 6). After 72 h of incubation, a dose-dependent […] effect towards the cancer cell lines was measured at very low micromolar (µM) concentrations of the compounds. The growth inhibition concentration of the Schiff bases and their organotin(IV) compounds required to inhibit 50% cell proliferation relative to the cells that were treated with DMSO (control) are given in Table 2. The stability of these compounds was assessed in DMSO as well as in a mixture of DMSO-H2O. The absorbance obtained from UV-vis spectroscopy analysis was monitored for 72 h, and an unchanged pattern in the spectra was indicative that the compounds were stable in both the solvent systems tested.
(§2) For HT29 (colon), U87 and SJ-G2 (glioblastoma), MCF-7 (breast), A2780 (ovarian), H460 (lung), A431 (skin), Du145 (prostate), BE2-C (neuroblastoma), MIA (pancreas) cell lines and one normal breast cell line, MCF-10A (normal breast), the MTT assays were performed using the following method:
(§3) Stock solutions were prepared as follows and stored at −20 °C: Trial compounds were stored as 10 mM solutions in DMSO. All cell lines were cultured in a humidified atmosphere 5% CO2 at 37 °C. The cancer cell lines were maintained in Dulbecco’s modified Eagle’s medium (DMEM) (Trace Biosciences) supplemented with 10% foetal bovine serum, 10 mM sodium bicarbonate, penicillin (100 IU/mL), streptomycin (100 μg/mL) and glutamine (4 mM). The normal cell line, MCF-10A was cultured in DMEM:F12 (1:1) cell culture media, 5% heat inactivated horse serum, supplemented with penicillin (50 IU/mL), streptomycin (50 μg/mL), 20mM Hepes, L-glutamine (2 mM), epidermal growth factor (20 ng/mL), hydrocortisone (500 ng/mL), cholera toxin (100 ng/mL) and insulin (10 μg/mL).
(§4) Cells in logarithmic growth were transferred to 96-well plates. Cytotoxicity was determined by plating cells in duplicate in 100 μL medium at a density of 2500–4000 cells/well. On day 0 (24 h after plating), when the cells were in logarithmic growth, 100 μL medium, with or without the test agent, was added to each well. After 72 h drug exposure, growth inhibitory effects were evaluated using the MTT (3-[4,5-dimethylthiazol-2-yl]-2,5-diphenyltetrazolium bromide) assay and absorbance read at 540 nm. Percentage growth inhibition was determined at a fixed drug concentration of 25 μM. A value of 100% was indicative of complete cell growth inhibition. Those analogues showing appreciable percentage growth inhibition underwent further dose-response analysis allowing for the calculation of a GI50 value. This value is the drug concentration at which cell growth is 50% inhibited based on the difference between the optical density values on day 0 and those at the end of drug exposure.

For experiment [3], the system named is MCF-10A (normal breast) cell line. Kind of experiment: MTT growth inhibition assay, MCF10A. The settings on record: MCF10A normal breast cells, 72 h, ± standard error, read-out: Growth Inhibition Concentration, GI50. It counts as cell-based. As for the experimental part: as §1, §2, §3, §4
On the technique in general: Tetrazolium assays rely on reduction of a dye to a coloured formazan, in cell work by metabolically active cells.

Experiment [4] deals with MCF-7 (breast) cancer cells. Briefly: MTT growth inhibition assay, MCF-7. Conditions: MCF-7 cells, 72 h, ± standard error, read-out: Growth Inhibition Concentration, GI50. In kind it is cell-based. How it is done:
as §1, §2, §3, §4

Experiment [5] deals with MIA (pancreatic) cancer cells. Briefly: MTT growth inhibition assay, MIA. It counts as cell-based. Conditions: 72 h, ± standard error, read-out: Growth Inhibition Concentration, GI50. How it is done:
as §1, §2, §3, §4

On to “Diphenyltin(IV) [Ph2Sn(S2MoVa), Diphenyltin(IV) [S-2-Methybenzyl-β-N-(2-hydroxy-3-methoxybenzylmethylene) dithiocarbazate]]”, for which, in experiment [1], the ROS generation entry is recorded as “stimulated ROS generation”. The GI50 came out at 1700 ± 70 nM in experiment [2], 1200 ± 300 nM in experiment [3], 1400 ± 120 nM in experiment [4] and 340 ± 20 nM in experiment [5].

For the substance “Diphenyltin(IV) [Ph2Sn(S4MoVa), Diphenyltin(IV) [S-4-Methybenzyl-β-N-(2-hydroxy-3-methoxybenzylmethylene) dithiocarbazate]]”, in experiment [1], the ROS generation entry is on record as “stimulated ROS generation”. The GI50 in experiment [2] was determined as 1500 ± 310 nM; in experiment [3], 1100 ± 370 nM; in experiment [4] it was 820 ± 140 nM; in experiment [5], 390 ± 30 nM.
